Results taken from the NIST ThermoML archive (doi:10.1016/j.fluid.2017.08.005).
± gives the expanded uncertainty stated by the source.

Conditions: Liquid, Closed cell (Static) method

SMILES	vapor or sublimation pressure (273.15 K) [kPa]	vapor or sublimation pressure (293.15 K) [kPa]	vapor or sublimation pressure (313.15 K) [kPa]	vapor or sublimation pressure (333.15 K) [kPa]	vapor or sublimation pressure (353.15 K) [kPa]
C=C [ethene]	4094 ± 16				
FC(F)Cl [chlorodifluoromethane]	498 ± 3	911 ± 3	1529 ± 4	2426 ± 5	3664 ± 7
O=C=O [carbon dioxide]	3487 ± 13				
